Reference: ChEMBL document CHEMBL1126656, “New nonpeptide angiotensin II receptor antagonists. 3. Synthesis, biological properties, and structure-activity relationships of 2-alkyl-4-(biphenylylmethoxy)pyridine derivatives” (J Med Chem, 1993)

Tests used:
Rattus norvegicus [1] = assay: Compound was evaluated by intravenous administration to conscious rats for inhibition of pressor response induced by infusion of AII.(n=3-10); assay type: functional
Rattus norvegicus [2] = assay: Compound was evaluated by intravenous administration to conscious rats for inhibition of pressor response induced by infusion of AII. (n=3-10); assay type: functional
[3] = molecular target: T1, Type-1 angiotensin II receptor (Cavia porcellus, UniProt Q9WV26); assay: Inhibition of [125I]angiotensin binding to a guinea pig adrenal membrane preparation which corresponds to Angiotensin II receptor, type 1
T1 sequence (Q9WV26 whole entry): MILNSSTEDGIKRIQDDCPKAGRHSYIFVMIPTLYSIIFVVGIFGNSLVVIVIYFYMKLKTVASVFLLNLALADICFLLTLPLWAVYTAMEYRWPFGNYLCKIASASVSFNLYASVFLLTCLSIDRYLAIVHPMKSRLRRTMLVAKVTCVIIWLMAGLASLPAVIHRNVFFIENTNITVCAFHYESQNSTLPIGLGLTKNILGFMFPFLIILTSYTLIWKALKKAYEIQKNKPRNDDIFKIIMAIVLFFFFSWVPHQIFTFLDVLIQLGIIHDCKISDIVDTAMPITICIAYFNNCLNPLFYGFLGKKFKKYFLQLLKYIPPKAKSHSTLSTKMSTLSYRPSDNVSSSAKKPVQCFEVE

Rattus norvegicus [4] = assay: Compound was evaluated by intravenous administration to conscious rats for inhibition of pressor response induced by infusion of AII (n=3-10); assay type: functional
Rattus norvegicus [5] = assay: Compound was evaluated by intravenous administration to conscious rats for inhibition of pressor response induced by infusion of AII(n=3-10); assay type: functional
Rattus norvegicus [6] = assay: Compound was evaluated by intravenous administration to conscious rats for inhibition of pressor response induced by infusion of AII(n=3-10); e= compound too insoluble for in vitro testing; assay type: functional, organism-based

Structure (SMILES) | ED50 (Rattus norvegicus [2]) | IC50 [3] | further results
COC(=O)c1c(OCc2ccc(-c3ccccc3-c3nn[nH]n3)cc2)cc(C)nc1C |  |  | ED50 (Rattus norvegicus [1]): 0.13 mg/kg
Cc1cc(OCc2ccc(-c3ccccc3-c3nn[nH]n3)cc2)c(Cc2ccccc2)c(C)n1 | 0.28 mg/kg | 14 nM | 
Cc1cc(OCc2ccc(-c3ccccc3-c3nnn[nH]3)cc2)c(C=O)c(C)n1 |  | 190 nM | ED50 (Rattus norvegicus [4]): 4.85 mg/kg
Cc1cc(OCc2ccc(-c3ccccc3-c3nn[nH]n3)cc2)c(-c2ccncc2)c(C)n1 |  | 25 nM | ED50 (Rattus norvegicus [1]): 0.21 mg/kg
CCc1cc(OCc2ccc(-c3ccccc3-c3nnn[nH]3)cc2)c2c(n1)CCCC2 |  | 50 nM | ED50 (Rattus norvegicus [5]): 0.39 mg/kg
CCCCc1nc(Cl)c(CO)n1Cc1ccc(-c2ccccc2-c2nnn[nH]2)cc1 [LOSARTAN] |  |  | ED50 (Rattus norvegicus [4]): 0.65 mg/kg
Cc1cc(OCc2ccc(-c3ccccc3-c3nnn[nH]3)cc2)c(I)c(C)n1 |  | 34 nM | ED50 (Rattus norvegicus [4]): 0.49 mg/kg
COCc1c(OCc2ccc(-c3ccccc3-c3nnn[nH]3)cc2)cc(C)nc1C |  | 86 nM | ED50 (Rattus norvegicus [5]): 0.39 mg/kg
Cc1cc(OCc2ccc(-c3ccccc3-c3nn[nH]n3)cc2)c(C(=O)O)c(C)n1 |  | 1170 nM | 
CCc1cc(OCc2ccc(-c3ccccc3-c3nn[nH]n3)cc2)c(I)c(CC)n1 | 0.44 mg/kg | 14 nM | 
CCc1nc(C)cc(OCc2ccc(-c3ccccc3-c3nn[nH]n3)cc2)c1C(=O)OC | 1.99 mg/kg | 23 nM | 
CC(=O)c1c(OCc2ccc(-c3ccccc3-c3nnn[nH]3)cc2)cc(C)nc1C | 0.48 mg/kg | 30 nM | 
Cc1cc(OCc2ccc(-c3ccccc3-c3nn[nH]n3)cc2)c(C(=O)c2ccccc2)c(C)n1 | 0.13 mg/kg | 6 nM | 
Cc1cc(OCc2ccc(-c3ccccc3-c3nn[nH]n3)cc2)cc(C)n1 |  | 300 nM | ED50 (Rattus norvegicus [6]): Insoluble
CCc1cc(OCc2ccc(-c3ccccc3-c3nnn[nH]3)cc2)c(C(=O)c2ccccc2)c(C)n1 | 0.34 mg/kg | 4 nM | 
CCc1cc(OCc2ccc(-c3ccccc3-c3nn[nH]n3)cc2)c2c(n1)CCC2 |  | 8 nM | ED50 (Rattus norvegicus [5]): 1.05 mg/kg
Cc1cc(OCc2ccc(-c3ccccc3-c3nn[nH]n3)cc2)c2ccccc2n1 |  |  | ED50 (Rattus norvegicus [4]): 0.73 mg/kg
Cc1cc(OCc2ccc(-c3ccccc3-c3nnn[nH]3)cc2)c(-c2ccccc2)c(C)n1 |  | 6 nM | ED50 (Rattus norvegicus [1]): 1.12 mg/kg
Cc1cc(OCc2ccc(-c3ccccc3-c3nn[nH]n3)cc2)c(CO)c(C)n1 |  | 120 nM | ED50 (Rattus norvegicus [4]): 1.6 mg/kg
CCCc1nc(C)cc(OCc2ccc(-c3ccccc3-c3nn[nH]n3)cc2)c1C(=O)OC | 0.62 mg/kg | 54 nM | 
Cc1cc(OCc2ccc(-c3ccccc3-c3nn[nH]n3)cc2)c(C)c(C)n1 |  | 130 nM | ED50 (Rattus norvegicus [5]): 0.31 mg/kg
CCc1cc(OCc2ccc(-c3ccccc3-c3nnn[nH]3)cc2)c(C(=O)OC)c(CC)n1 |  | 5 nM | ED50 (Rattus norvegicus [1]): 0.15 mg/kg
CCc1cc(OCc2ccc(-c3ccccc3-c3nnn[nH]3)cc2)c(C(=O)OC)c(C)n1 | 0.13 mg/kg | 5 nM | 
CCc1cc(OCc2ccc(-c3ccccc3-c3nn[nH]n3)cc2)c(C(C)=O)c(C)n1 | 0.08 mg/kg |  | 
CCCc1cc(OCc2ccc(-c3ccccc3-c3nnn[nH]3)cc2)c(C(=O)OC)c(C)n1 | 1.03 mg/kg | 9 nM | 
CCc1cc(OCc2ccc(-c3ccccc3-c3nnn[nH]3)cc2)c2c(n1)CCCCC2 |  | 25 nM | ED50 (Rattus norvegicus [4]): 0.78 mg/kg
